# Test results published in article PMC12320299 (Chemical Science, 2025).
# Tested on: SW480 cancer cells
# Assay: Proteome profiling of compound-treated SW480 cancer cells (24 h, approx. IC50, CYT and NE fractions)
# Format: cell-based, human
# Protocol: To gain insight into potential modes of action and derive structure–activity relationships on a molecular level, proteomic profiling experiments were carried out based on label-free quantification (LFQ) by nano-liquid chromatography tandem mass spectrometry (nLC-MS/MS). […] Six replicates were used per condition. The perturbations were evaluated at subcellular resolution by fractionating cells into cytoplasmic (CYT) and nuclear (NE) protein fractions. Those have been separately proteolytically digested and analysed (Fig. 3A). The perturbations with the 3-Et-NQ and 3-Morph-NQ complexes were performed against their respective solvent-treated controls (CON), yielding a total of 72 samples. […] Statistical significance of individual protein regulations was calculated by multiple testing-corrected P-values based on 5% false discovery rate (FDR = 0.05 and S0 = 0.1).
# The position of each group represents the summed fold-changes of the individual proteins in the group according to the subcellular space, i.e., CYT and NE fractions, while the size represents the number of proteins in each group. […]
# Proteome profiling of compound-treated SW480 cancer cells […]
# cells per well and left to adhere in complete cell culture medium. After 24 h, the medium was exchanged with fresh complete medium (DMSO mock control) or fresh medium containing […]
# solution in DMSO, respectively) and incubated for another 24 h. Each condition was carried out in hexuplicates. The cells were processed according to a nucleocytoplasmic fractionation protocol as previously described.3 All steps were performed on ice. The medium was removed, and the cells were washed twice with 1×PBS (phosphate buffered saline, 3 mL). Then, PBS was thoroughly removed. Isotonic lysis buffer (10 mM HEPES, 10 mM NaCl, 3.5 mM MgCl2, 1 mM EGTA, 0.25 M Sucrose, 0.5% Triton X-100) containing protease inhibitors (1% PMSF, Sigma, and 1% protease and phosphatase inhibitor cocktail, Roche) was added to the flasks, the cells were scraped off and transferred into labelled 15 mL Falcon tubes. The cellular membrane was ruptured using shear stress by pressing the cell suspension through a syringe 9–12 times. Membrane rupture with intact nuclei was monitored under a microscope. After centrifugation (960 g, 5 min), the supernatant containing the cytoplasmic (CYT) proteins was transferred into new tubes containing ice-cold ethanol (1 : 5, HPLC grade) and precipitated […]
# overnight at –20 °C. The pellet containing the nuclei was incubated with a hypertonic solution (10 mM Tris-HCl, 1 mM EDTA and 0.5 M NaCl) and subsequently diluted 1:10 with NP-40 buffer (10 mm Tris-HCl, 1 mm EDTA and 0.5% Triton X-100) containing protease inhibitors (1% PMSF, Sigma, and 1% protease and phosphatase inhibitor cocktail, Roche). After centrifugation (960 g, 5 min), the soluble nuclear (NE) proteins were also transferred into new tubes containing ice-cold ethanol (1 : 5, HPLC grade) and precipitated overnight at –20 °C.
# The precipitated proteins were finally pelleted by centrifugation (5000 g, 30 min, 4 °C), the solution was decanted and the pellet dried under vacuum.
# [1] = cytoplasmic fraction, FDR = 0.05, S0 = 0.1
# [2] = nuclear fraction, FDR = 0.05, S0 = 0.1
smiles,measurement,setting,value
CCC1=C2[O][Os][O]C2(n2cccn2)c2ccccc2C1=O.Cc1ccc(C(C)C)cc1 (stereo not shown) [Compound 2a],"N° significantly regulated proteins, Total",CYT and NE,968
same,"GO BP Cellular response to heat, summed fold-changes",CYT fraction,12.51
same,"GO BP Cellular response to oxidative stress, summed fold-changes",CYT fraction,2.82
same,"GO BP DNA duplex unwinding, summed fold-changes",CYT fraction,-6.24
same,"GO BP DNA replication, summed fold-changes",CYT fraction,-1.08
same,"GO BP Double-strand break repair, summed fold-changes",CYT fraction,-1.23
same,"GO BP Macroautophagy, summed fold-changes",CYT fraction,10.51
same,"GO BP Negative regulation of apoptotic process, summed fold-changes",CYT fraction,3.78
same,"GO BP Negative regulation of translation, summed fold-changes",CYT fraction,-16.92
same,"GO BP Proteasome-mediated ubiquitin-dependent protein catabolic process, summed fold-changes",CYT fraction,2.56
same,"GO BP Protein K48-linked ubiquitination, summed fold-changes",CYT fraction,-5.49
same,"GO BP Protein folding, summed fold-changes",CYT fraction,12.25
same,"GO BP Protein transport, summed fold-changes",CYT fraction,-1.68
same,"GO BP Regulation of mRNA stability, summed fold-changes",CYT fraction,-7.54
same,"GO BP Response to oxidative stress, summed fold-changes",CYT fraction,3.27
same,"GO BP Ribosomal small subunit biogenesis, summed fold-changes",CYT fraction,-13.81
same,"GO BP Stress granule assembly, summed fold-changes",CYT fraction,-9.95
same,"GO BP Translation, summed fold-changes",CYT fraction,-61.19
same,"GO BP mRNA processing, summed fold-changes",CYT fraction,-0.15
same,"GO BP rRNA processing, summed fold-changes",CYT fraction,-20.40
same,"GO CC Azurophil granule lumen, summed fold-changes",CYT fraction,3.77
same,"GO CC Cell surface, summed fold-changes",CYT fraction,0.48
same,"GO CC Centrosome, summed fold-changes",CYT fraction,-15.78
same,"GO CC Chromosome, telomeric region, summed fold-changes",CYT fraction,-11.84
same,"GO CC Cytoplasmic stress granule, summed fold-changes",CYT fraction,-16.41
same,"GO CC Cytosol, summed fold-changes",CYT fraction,-84.80
same,"GO CC Endoplasmic reticulum, summed fold-changes",CYT fraction,-28.57
same,"GO CC Extracellular exosome, summed fold-changes",CYT fraction,-26.34
same,"GO CC Ficolin-1-rich granule lumen, summed fold-changes",CYT fraction,8.74
same,"GO CC Focal adhesion, summed fold-changes",CYT fraction,-17.07
same,"GO CC Intracellular membrane-bounded organelle, summed fold-changes",CYT fraction,-3.80
same,"GO CC Membrane, summed fold-changes",CYT fraction,-160.70
same,"GO CC Mitochondrion, summed fold-changes",CYT fraction,-60.30
same,"GO CC Nucleoplasm, summed fold-changes",CYT fraction,-4.45
same,"GO CC Nucleus, summed fold-changes",CYT fraction,-0.98
same,"GO CC Perinuclear region of cytoplasm, summed fold-changes",CYT fraction,-5.25
same,"GO CC Proteasome complex, summed fold-changes",CYT fraction,3.84
same,"GO CC Protein-containing complex, summed fold-changes",CYT fraction,-12.02
same,"GO CC Ribonucleoprotein complex, summed fold-changes",CYT fraction,-24.78
same,"GO CC Spliceosomal complex, summed fold-changes",CYT fraction,-1.04
same,"KEGG pathway Apoptosis, summed fold-changes",CYT fraction,5.03
same,"KEGG pathway Cellular senescence, summed fold-changes",CYT fraction,-0.24
same,"KEGG pathway Ferroptosis, summed fold-changes",CYT fraction,5.49
same,"KEGG pathway Proteasome, summed fold-changes",CYT fraction,4.95
same,"KEGG pathway Protein processing in endoplasmic reticulum, summed fold-changes",CYT fraction,25.89
same,"KEGG pathway RNA degradation, summed fold-changes",CYT fraction,-8.81
same,"KEGG pathway Ribosome, summed fold-changes",CYT fraction,-52.73
same,"GO BP Cellular response to heat, summed fold-changes",NE fraction,8.73
same,"GO BP Cellular response to oxidative stress, summed fold-changes",NE fraction,-0.12
same,"GO BP DNA duplex unwinding, summed fold-changes",NE fraction,-0.60
same,"GO BP DNA replication, summed fold-changes",NE fraction,-7.21
same,"GO BP Double-strand break repair, summed fold-changes",NE fraction,-0.87
same,"GO BP Macroautophagy, summed fold-changes",NE fraction,4.83
same,"GO BP Negative regulation of apoptotic process, summed fold-changes",NE fraction,2.62
same,"GO BP Negative regulation of translation, summed fold-changes",NE fraction,1.88
same,"GO BP Proteasome-mediated ubiquitin-dependent protein catabolic process, summed fold-changes",NE fraction,45.28
same,"GO BP Protein K48-linked ubiquitination, summed fold-changes",NE fraction,-1.15
same,"GO BP Protein folding, summed fold-changes",NE fraction,2.10
same,"GO BP Protein transport, summed fold-changes",NE fraction,1.57
same,"GO BP Regulation of mRNA stability, summed fold-changes",NE fraction,-0.24
same,"GO BP Response to oxidative stress, summed fold-changes",NE fraction,-0.72
same,"GO BP Ribosomal small subunit biogenesis, summed fold-changes",NE fraction,-1.30
same,"GO BP Stress granule assembly, summed fold-changes",NE fraction,3.01
same,"GO BP Translation, summed fold-changes",NE fraction,-4.88
same,"GO BP mRNA processing, summed fold-changes",NE fraction,1.71
same,"GO BP rRNA processing, summed fold-changes",NE fraction,-2.04
same,"GO CC Azurophil granule lumen, summed fold-changes",NE fraction,-1.14
same,"GO CC Cell surface, summed fold-changes",NE fraction,0.76
same,"GO CC Centrosome, summed fold-changes",NE fraction,0.70
same,"GO CC Chromosome, telomeric region, summed fold-changes",NE fraction,-12.89
same,"GO CC Cytoplasmic stress granule, summed fold-changes",NE fraction,4.82
same,"GO CC Cytosol, summed fold-changes",NE fraction,8.58
same,"GO CC Endoplasmic reticulum, summed fold-changes",NE fraction,8.32
same,"GO CC Extracellular exosome, summed fold-changes",NE fraction,5.34
same,"GO CC Ficolin-1-rich granule lumen, summed fold-changes",NE fraction,23.99
same,"GO CC Focal adhesion, summed fold-changes",NE fraction,9.01
same,"GO CC Intracellular membrane-bounded organelle, summed fold-changes",NE fraction,8.65
same,"GO CC Membrane, summed fold-changes",NE fraction,-2.15
same,"GO CC Mitochondrion, summed fold-changes",NE fraction,-7.86
same,"GO CC Nucleoplasm, summed fold-changes",NE fraction,29.04
same,"GO CC Nucleus, summed fold-changes",NE fraction,29.16
same,"GO CC Perinuclear region of cytoplasm, summed fold-changes",NE fraction,8.90
same,"GO CC Proteasome complex, summed fold-changes",NE fraction,37.70
same,"GO CC Protein-containing complex, summed fold-changes",NE fraction,-3.65
same,"GO CC Ribonucleoprotein complex, summed fold-changes",NE fraction,3.30
same,"GO CC Spliceosomal complex, summed fold-changes",NE fraction,-3.40
same,"KEGG pathway Apoptosis, summed fold-changes",NE fraction,-0.73
same,"KEGG pathway Cellular senescence, summed fold-changes",NE fraction,-3.09
same,"KEGG pathway Ferroptosis, summed fold-changes",NE fraction,1.80
same,"KEGG pathway Proteasome, summed fold-changes",NE fraction,35.64
same,"KEGG pathway Protein processing in endoplasmic reticulum, summed fold-changes",NE fraction,19.56
same,"KEGG pathway RNA degradation, summed fold-changes",NE fraction,-5.97
same,"KEGG pathway Ribosome, summed fold-changes",NE fraction,-4.75
same,"N° proteins down-regulated, CYT",[1],429
same,"N° proteins upregulated, CYT",[1],202
same,"N° proteins down-regulated, NE",[2],170
same,"N° proteins upregulated, NE",[2],167
